From patent US11434221B2, “Pyrazine-4-carbamate or -urea derivatives as herbicides” (Syngenta Participations AG, priority 2017, dated 2022)

tested on: Triticum aestivium (TRZAW); assay: Post-emergence herbicidal activity, glasshouse pot test; assay type: in vivo; set-up: key: 5=total damage to plant; 0=no damage to plant; settings: Rate 1000 g/ha; sprayed after 8 days cultivation; evaluated after 13 days
Protocol: (§1) Seeds of a variety of test species were sown in standard soil in pots: Triticum aestivium (TRZAW), Avena fatua (AVEFA), Alopecurus myosuroides (ALOMY), Echinochloa crus-galli (ECHCG), Lolium perenne (LOLPE), and Setaria faberi (SETFA). After 8 days cultivation (post-emergence) under controlled conditions in a glasshouse (at 24/16° C., day/night; 14 hours light; 65% humidity), the plants were sprayed with an aqueous spray solution derived from the formulation of the technical active ingredient in acetone/water (50:50) solution containing 0.5% Tween 20 (polyoxyethelyene sorbitan monolaurate, CAS RN 9005-64-5). The test plants were then grown in a glasshouse under controlled conditions (at 24/16° C., day/night; 14 hours light; 65% humidity) and watered twice daily. After 13 days, the test was evaluated (5=total damage to plant; 0=no damage to plant).

**Q.** For `CC(C)(C)OC(=O)N(C(=O)OC(C)(C)C)c1ncc(-c2cncc(F)c2)nc1C#N` [Compound H9], which “Control of weed species after post-emergence application, TRAZW (damage score 0-5)” value is on record?
**A.** 0

**Q.** `CC(C)(C)OC(=O)Nc1ncc(-c2cncc(F)c2)nc1C#N` [Compound H10] was tested. Which “Control of weed species after post-emergence application, TRAZW (damage score 0-5)” value did it give?
**A.** 0

**Q.** How did the “Control of weed species after post-emergence application, TRAZW (damage score 0-5)” value turn out when `C=C(C)c1nc(-c2cncc(F)c2)cnc1N(C(=O)OC(C)(C)C)C(=O)OC(C)(C)C` [Compound H11] was run?
**A.** 0

tested on: Echinochloa crus-galli (ECHCG); assay: as above; assay type: in vivo; set-up: key: 5=total damage to plant; 0=no damage to plant; settings: Rate 1000 g/ha; sprayed after 8 days cultivation; evaluated after 13 days
Protocol: as §1

**Q.** For `CC(C)(C)OC(=O)N(C(=O)OC(C)(C)C)c1ncc(-c2cncc(F)c2)nc1C#N` [Compound H9], which “Control of weed species after post-emergence application, ECHCG (damage score 0-5)” value is on record?
**A.** 3

**Q.** `CC(C)(C)OC(=O)Nc1ncc(-c2cncc(F)c2)nc1C#N` [Compound H10] was tested. Which “Control of weed species after post-emergence application, ECHCG (damage score 0-5)” value did it give?
**A.** 2

**Q.** With `C=C(C)c1nc(-c2cncc(F)c2)cnc1N(C(=O)OC(C)(C)C)C(=O)OC(C)(C)C` [Compound H11] as the molecule, how does the “Control of weed species after post-emergence application, ECHCG (damage score 0-5)” value read?
**A.** 3

tested on: Avena fatua (AVEFA); assay: as above; assay type: in vivo; set-up: key: 5=total damage to plant; 0=no damage to plant; settings: Rate 1000 g/ha; sprayed after 8 days cultivation; evaluated after 13 days
Protocol: as §1

**Q.** How did the “Control of weed species after post-emergence application, AVEFA (damage score 0-5)” value turn out when `CC(C)(C)OC(=O)N(C(=O)OC(C)(C)C)c1ncc(-c2cncc(F)c2)nc1C#N` [Compound H9] was run?
**A.** 3

**Q.** How did the “Control of weed species after post-emergence application, AVEFA (damage score 0-5)” value turn out when `CC(C)(C)OC(=O)Nc1ncc(-c2cncc(F)c2)nc1C#N` [Compound H10] was run?
**A.** 1

**Q.** `C=C(C)c1nc(-c2cncc(F)c2)cnc1N(C(=O)OC(C)(C)C)C(=O)OC(C)(C)C` [Compound H11] was tested. Which “Control of weed species after post-emergence application, AVEFA (damage score 0-5)” value did it give?
**A.** 2

tested on: Setaria faberi (SETFA); assay: as above; assay type: in vivo; set-up: key: 5=total damage to plant; 0=no damage to plant; settings: Rate 1000 g/ha; sprayed after 8 days cultivation; evaluated after 13 days
Protocol: as §1

**Q.** `CC(C)(C)OC(=O)N(C(=O)OC(C)(C)C)c1ncc(-c2cncc(F)c2)nc1C#N` [Compound H9] was tested. Which “Control of weed species after post-emergence application, SETFA (damage score 0-5)” value did it give?
**A.** 5

**Q.** For `CC(C)(C)OC(=O)Nc1ncc(-c2cncc(F)c2)nc1C#N` [Compound H10], which “Control of weed species after post-emergence application, SETFA (damage score 0-5)” value is on record?
**A.** 5

**Q.** With `C=C(C)c1nc(-c2cncc(F)c2)cnc1N(C(=O)OC(C)(C)C)C(=O)OC(C)(C)C` [Compound H11] as the molecule, how does the “Control of weed species after post-emergence application, SETFA (damage score 0-5)” value read?
**A.** 5

tested on: Lolium perenne (LOLPE); assay: as above; assay type: in vivo; set-up: key: 5=total damage to plant; 0=no damage to plant; settings: Rate 1000 g/ha; sprayed after 8 days cultivation; evaluated after 13 days
Protocol: as §1

**Q.** `CC(C)(C)OC(=O)N(C(=O)OC(C)(C)C)c1ncc(-c2cncc(F)c2)nc1C#N` [Compound H9] was tested. Which “Control of weed species after post-emergence application, LOLPE (damage score 0-5)” value did it give?
**A.** 1

**Q.** Which “Control of weed species after post-emergence application, LOLPE (damage score 0-5)” value does the source give for `CC(C)(C)OC(=O)Nc1ncc(-c2cncc(F)c2)nc1C#N` [Compound H10] here?
**A.** 1

**Q.** With `C=C(C)c1nc(-c2cncc(F)c2)cnc1N(C(=O)OC(C)(C)C)C(=O)OC(C)(C)C` [Compound H11] as the molecule, how does the “Control of weed species after post-emergence application, LOLPE (damage score 0-5)” value read?
**A.** 2

tested on: Alopecurus myosuroides (ALOMY); assay: as above; assay type: in vivo; set-up: key: 5=total damage to plant; 0=no damage to plant; settings: Rate 1000 g/ha; sprayed after 8 days cultivation; evaluated after 13 days
Protocol: as §1

**Q.** Which “Control of weed species after post-emergence application, ALOMY (damage score 0-5)” value does the source give for `CC(C)(C)OC(=O)N(C(=O)OC(C)(C)C)c1ncc(-c2cncc(F)c2)nc1C#N` [Compound H9] here?
**A.** 0

**Q.** How did the “Control of weed species after post-emergence application, ALOMY (damage score 0-5)” value turn out when `CC(C)(C)OC(=O)Nc1ncc(-c2cncc(F)c2)nc1C#N` [Compound H10] was run?
**A.** 0

**Q.** With `C=C(C)c1nc(-c2cncc(F)c2)cnc1N(C(=O)OC(C)(C)C)C(=O)OC(C)(C)C` [Compound H11] as the molecule, how does the “Control of weed species after post-emergence application, ALOMY (damage score 0-5)” value read?
**A.** 0

tested on: Triticum aestivium (TRZAW); assay: Pre-emergence herbicidal activity, glasshouse pot test; assay type: in vivo; set-up: key: 5=total damage to plant; 0=no damage to plant; settings: Rate 1000 g/ha; sprayed one day after sowing; evaluated after 13 days
Protocol: as §1, with “After” for “After 8 days”, “for one day (pre-emergence)” for “(post-emergence)”

**Q.** Which “Control of weed species after pre-emergence application, TRAZW (damage score 0-5)” value does the source give for `CC(C)(C)OC(=O)N(C(=O)OC(C)(C)C)c1ncc(-c2cncc(F)c2)nc1C#N` [Compound H9] here?
**A.** 0

**Q.** With `CC(C)(C)OC(=O)Nc1ncc(-c2cncc(F)c2)nc1C#N` [Compound H10] as the molecule, how does the “Control of weed species after pre-emergence application, TRAZW (damage score 0-5)” value read?
**A.** 0

**Q.** Which “Control of weed species after pre-emergence application, TRAZW (damage score 0-5)” value does the source give for `C=C(C)c1nc(-c2cncc(F)c2)cnc1N(C(=O)OC(C)(C)C)C(=O)OC(C)(C)C` [Compound H11] here?
**A.** 0

tested on: Echinochloa crus-galli (ECHCG); assay: as above; assay type: in vivo; set-up: key: 5=total damage to plant; 0=no damage to plant; settings: Rate 1000 g/ha; sprayed one day after sowing; evaluated after 13 days
Protocol: as §1, with “After” for “After 8 days”, “for one day (pre-emergence)” for “(post-emergence)”

**Q.** For `CC(C)(C)OC(=O)N(C(=O)OC(C)(C)C)c1ncc(-c2cncc(F)c2)nc1C#N` [Compound H9], which “Control of weed species after pre-emergence application, ECHCG (damage score 0-5)” value is on record?
**A.** 2

**Q.** With `CC(C)(C)OC(=O)Nc1ncc(-c2cncc(F)c2)nc1C#N` [Compound H10] as the molecule, how does the “Control of weed species after pre-emergence application, ECHCG (damage score 0-5)” value read?
**A.** 2

**Q.** How did the “Control of weed species after pre-emergence application, ECHCG (damage score 0-5)” value turn out when `C=C(C)c1nc(-c2cncc(F)c2)cnc1N(C(=O)OC(C)(C)C)C(=O)OC(C)(C)C` [Compound H11] was run?
**A.** 3

tested on: Avena fatua (AVEFA); assay: as above; assay type: in vivo; set-up: key: 5=total damage to plant; 0=no damage to plant; settings: Rate 1000 g/ha; sprayed one day after sowing; evaluated after 13 days
Protocol: as §1, with “After” for “After 8 days”, “for one day (pre-emergence)” for “(post-emergence)”

**Q.** `CC(C)(C)OC(=O)N(C(=O)OC(C)(C)C)c1ncc(-c2cncc(F)c2)nc1C#N` [Compound H9] was tested. Which “Control of weed species after pre-emergence application, AVEFA (damage score 0-5)” value did it give?
**A.** 1

**Q.** With `CC(C)(C)OC(=O)Nc1ncc(-c2cncc(F)c2)nc1C#N` [Compound H10] as the molecule, how does the “Control of weed species after pre-emergence application, AVEFA (damage score 0-5)” value read?
**A.** 0

**Q.** `C=C(C)c1nc(-c2cncc(F)c2)cnc1N(C(=O)OC(C)(C)C)C(=O)OC(C)(C)C` [Compound H11] was tested. Which “Control of weed species after pre-emergence application, AVEFA (damage score 0-5)” value did it give?
**A.** 0

tested on: Setaria faberi (SETFA); assay: as above; assay type: in vivo; set-up: key: 5=total damage to plant; 0=no damage to plant; settings: Rate 1000 g/ha; sprayed one day after sowing; evaluated after 13 days
Protocol: as §1, with “After” for “After 8 days”, “for one day (pre-emergence)” for “(post-emergence)”

**Q.** Which “Control of weed species after pre-emergence application, SETFA (damage score 0-5)” value does the source give for `CC(C)(C)OC(=O)N(C(=O)OC(C)(C)C)c1ncc(-c2cncc(F)c2)nc1C#N` [Compound H9] here?
**A.** 5

**Q.** For `CC(C)(C)OC(=O)Nc1ncc(-c2cncc(F)c2)nc1C#N` [Compound H10], which “Control of weed species after pre-emergence application, SETFA (damage score 0-5)” value is on record?
**A.** 4

**Q.** Which “Control of weed species after pre-emergence application, SETFA (damage score 0-5)” value does the source give for `C=C(C)c1nc(-c2cncc(F)c2)cnc1N(C(=O)OC(C)(C)C)C(=O)OC(C)(C)C` [Compound H11] here?
**A.** 4

tested on: Lolium perenne (LOLPE); assay: as above; assay type: in vivo; set-up: key: 5=total damage to plant; 0=no damage to plant; settings: Rate 1000 g/ha; sprayed one day after sowing; evaluated after 13 days
Protocol: as §1, with “After” for “After 8 days”, “for one day (pre-emergence)” for “(post-emergence)”

**Q.** For `CC(C)(C)OC(=O)N(C(=O)OC(C)(C)C)c1ncc(-c2cncc(F)c2)nc1C#N` [Compound H9], which “Control of weed species after pre-emergence application, LOLPE (damage score 0-5)” value is on record?
**A.** 1

**Q.** For `CC(C)(C)OC(=O)Nc1ncc(-c2cncc(F)c2)nc1C#N` [Compound H10], which “Control of weed species after pre-emergence application, LOLPE (damage score 0-5)” value is on record?
**A.** 0

**Q.** Which “Control of weed species after pre-emergence application, LOLPE (damage score 0-5)” value does the source give for `C=C(C)c1nc(-c2cncc(F)c2)cnc1N(C(=O)OC(C)(C)C)C(=O)OC(C)(C)C` [Compound H11] here?
**A.** 2

tested on: Alopecurus myosuroides (ALOMY); assay: as above; assay type: in vivo; set-up: key: 5=total damage to plant; 0=no damage to plant; settings: Rate 1000 g/ha; sprayed one day after sowing; evaluated after 13 days
Protocol: as §1, with “After” for “After 8 days”, “for one day (pre-emergence)” for “(post-emergence)”

**Q.** How did the “Control of weed species after pre-emergence application, ALOMY (damage score 0-5)” value turn out when `CC(C)(C)OC(=O)N(C(=O)OC(C)(C)C)c1ncc(-c2cncc(F)c2)nc1C#N` [Compound H9] was run?
**A.** 0

**Q.** For `CC(C)(C)OC(=O)Nc1ncc(-c2cncc(F)c2)nc1C#N` [Compound H10], which “Control of weed species after pre-emergence application, ALOMY (damage score 0-5)” value is on record?
**A.** 0

**Q.** Which “Control of weed species after pre-emergence application, ALOMY (damage score 0-5)” value does the source give for `C=C(C)c1nc(-c2cncc(F)c2)cnc1N(C(=O)OC(C)(C)C)C(=O)OC(C)(C)C` [Compound H11] here?
**A.** 1
